Measured values reported in ChEMBL document CHEMBL4196036, “Benzomorphan scaffold for opioid analgesics and pharmacological tools development: A comprehensive review” (Eur J Med Chem, 2018).

Columns and labels:
Mu-type opioid receptor [1] = target: T1, Mu-type opioid receptor (Cavia porcellus, UniProt P97266); experiment: Displacement of [3H]DAMGO from MOR in guinea pig brain membranes; type: cell membranes, Membrane
[2] = target: T2, Kappa-type opioid receptor (Homo sapiens, UniProt P41145); experiment: Agonist activity at human KOR expressed in HEK293 cell membranes assessed as stimulation of [35S]GTPgammaS binding after 30 mins by scintillation counting method; type: functional
T2 sequence (P41145 whole entry): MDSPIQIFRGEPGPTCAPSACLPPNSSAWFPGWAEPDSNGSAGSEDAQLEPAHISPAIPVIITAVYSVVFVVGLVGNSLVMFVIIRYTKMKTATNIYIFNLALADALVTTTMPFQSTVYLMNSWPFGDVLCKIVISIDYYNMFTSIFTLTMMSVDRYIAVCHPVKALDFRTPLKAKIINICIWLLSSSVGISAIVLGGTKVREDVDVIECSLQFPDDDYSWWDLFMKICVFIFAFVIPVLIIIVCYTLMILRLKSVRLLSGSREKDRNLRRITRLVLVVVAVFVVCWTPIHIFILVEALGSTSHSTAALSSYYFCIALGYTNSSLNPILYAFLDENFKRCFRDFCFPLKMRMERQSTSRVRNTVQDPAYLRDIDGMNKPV

Mu-type opioid receptor [3] = target: T3, Mu-type opioid receptor (Homo sapiens, UniProt P35372); experiment: Displacement of [3H]-diprenorphine from MOR (unknown origin) after 1 to 2 hrs by scintillation counting method
T3 sequence (P35372 whole entry): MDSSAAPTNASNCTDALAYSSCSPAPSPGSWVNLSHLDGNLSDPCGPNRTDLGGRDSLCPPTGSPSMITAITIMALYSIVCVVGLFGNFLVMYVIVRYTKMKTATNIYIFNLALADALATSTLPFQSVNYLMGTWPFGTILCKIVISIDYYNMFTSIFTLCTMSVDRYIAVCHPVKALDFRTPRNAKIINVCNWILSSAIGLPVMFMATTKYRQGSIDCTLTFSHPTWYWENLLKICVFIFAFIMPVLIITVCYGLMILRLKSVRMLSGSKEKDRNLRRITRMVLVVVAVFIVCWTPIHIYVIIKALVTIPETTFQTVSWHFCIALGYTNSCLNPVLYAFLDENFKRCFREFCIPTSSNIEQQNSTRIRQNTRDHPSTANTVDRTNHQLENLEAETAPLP

[4] = target: T2, Kappa-type opioid receptor; experiment: Agonist activity at human KOR expressed in HEK293 cell membranes assessed as stimulation of [35S]GTPgammaS binding after 30 mins by scintillation counting method relative to control; type: functional
[5] = target: T2, Kappa-type opioid receptor; experiment: Displacement of [3H]U69,593 from human KOR expressed in HEK293 cell membranes after 1 hr by scintillation counting method
[6] = target: T4, G_PROTEIN_RECEP_F1_2 domain-containing protein (Cavia porcellus, UniProt A0A286XTF2); experiment: Displacement of [3H]Naltrindole from DOR in guinea pig brain membranes after 3 hrs by scintillation counting method; type: cell membranes, Membrane
T4 sequence (A0A286XTF2 whole entry): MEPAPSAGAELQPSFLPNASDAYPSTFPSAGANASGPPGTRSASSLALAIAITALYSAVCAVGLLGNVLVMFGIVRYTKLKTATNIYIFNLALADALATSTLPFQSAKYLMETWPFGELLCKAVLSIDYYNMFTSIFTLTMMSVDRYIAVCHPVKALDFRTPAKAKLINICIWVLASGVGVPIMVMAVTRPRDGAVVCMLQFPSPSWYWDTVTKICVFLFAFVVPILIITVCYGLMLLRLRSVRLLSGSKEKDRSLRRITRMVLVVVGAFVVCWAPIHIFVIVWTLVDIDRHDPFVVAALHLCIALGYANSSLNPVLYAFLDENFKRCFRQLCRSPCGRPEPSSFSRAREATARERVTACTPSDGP

Mus musculus [7] = organism: Mus musculus; experiment: Antinociceptive activity in mouse by paraphenylquinone assay; type: functional
Mus musculus [8] = experiment: Analgesic activity in sc dosed ICR mouse after 30 mins by hot plate test; type: functional; conditions: 0.5 h
Mus musculus [9] = experiment: Antinociceptive activity in sc dosed ICR mouse after 20 mins by tail flick test; type: functional
Mu-type opioid receptor [10] = target: Mu-type opioid receptor (Macaca mulatta, UniProt Q9MYW9); experiment: Displacement of [3H]DAMGO from MOR in monkey brain cortex membranes; type: cell membranes
Mu-type opioid receptor (Macaca mulatta, UniProt Q9MYW9), sequence (Q9MYW9 whole entry): as the sequence (P35372 whole entry) above, with A6V, Y19H, P26R, A119V, F154S, T227S, V293I, N344D counted along it

[11] = target: Kappa-type opioid receptor (Macaca mulatta, UniProt H9FL65); experiment: Displacement of [3H]U69,593 from KOR in monkey brain cortex membranes; type: cell membranes
Kappa-type opioid receptor (Macaca mulatta, UniProt H9FL65), sequence (H9FL65 whole entry): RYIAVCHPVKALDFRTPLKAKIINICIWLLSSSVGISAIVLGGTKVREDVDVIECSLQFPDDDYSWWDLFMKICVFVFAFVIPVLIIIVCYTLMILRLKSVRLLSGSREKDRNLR

[12] = target: G_PROTEIN_RECEP_F1_2 domain-containing protein (Macaca mulatta, UniProt F7HEV7); experiment: Displacement of [3H]naltrindole from DOR in monkey brain cortex membranes; type: cell membranes
G_PROTEIN_RECEP_F1_2 domain-containing protein (Macaca mulatta, UniProt F7HEV7), sequence (F7HEV7 whole entry): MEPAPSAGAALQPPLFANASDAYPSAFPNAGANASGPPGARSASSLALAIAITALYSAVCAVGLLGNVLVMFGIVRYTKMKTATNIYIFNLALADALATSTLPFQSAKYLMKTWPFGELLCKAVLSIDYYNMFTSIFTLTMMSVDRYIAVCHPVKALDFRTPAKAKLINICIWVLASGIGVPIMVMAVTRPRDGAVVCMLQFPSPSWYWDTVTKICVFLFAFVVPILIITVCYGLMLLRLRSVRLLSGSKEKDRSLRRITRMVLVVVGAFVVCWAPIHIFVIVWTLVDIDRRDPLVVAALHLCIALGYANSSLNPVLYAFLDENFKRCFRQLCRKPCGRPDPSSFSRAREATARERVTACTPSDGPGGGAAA

Homo sapiens [13] = organism: Homo sapiens; experiment: Selectivity ratio of Ki for MOR (unknown origin) to Ki for KOR (unknown origin)
Homo sapiens [14] = organism: Homo sapiens; experiment: Selectivity ratio of Ki for DOR (unknown origin) to Ki for KOR (unknown origin)
Mus musculus [15] = experiment: Antinociceptive activity in sc dosed mouse by abdominal constriction assay; type: functional
[16] = target: T2, Kappa-type opioid receptor; experiment: Binding affinity to KOR (unknown origin)
[17] = target: T5, Kappa-type opioid receptor (Cavia porcellus, UniProt P41144); experiment: Displacement of [3H]U69,593 from KOR in guinea pig brain membranes after 60 mins by scintillation counting method; type: cell membranes, Membrane
T5 sequence (P41144 whole entry): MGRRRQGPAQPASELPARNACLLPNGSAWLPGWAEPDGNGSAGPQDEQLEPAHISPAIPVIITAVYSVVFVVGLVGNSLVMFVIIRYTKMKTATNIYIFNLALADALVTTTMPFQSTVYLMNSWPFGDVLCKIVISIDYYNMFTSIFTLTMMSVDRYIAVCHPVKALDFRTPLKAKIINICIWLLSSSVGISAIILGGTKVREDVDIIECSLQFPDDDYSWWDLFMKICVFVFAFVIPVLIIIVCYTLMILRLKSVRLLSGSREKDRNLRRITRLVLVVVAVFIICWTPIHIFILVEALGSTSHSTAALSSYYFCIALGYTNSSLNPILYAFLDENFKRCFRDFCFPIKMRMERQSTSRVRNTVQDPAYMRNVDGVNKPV

Mu-type opioid receptor [18] = target: T1, Mu-type opioid receptor; experiment: Displacement of [3H]DAMGO from MOR in guinea pig brain membranes after 60 mins by scintillation counting method; type: cell membranes, Membrane
Mus musculus [19] = experiment: Antinociceptive activity in sc dosed mouse assessed as inhibition of PPQ-induced stretching response pretreated for 10 mins followed by PPQ treatment measured for 1 min at 10 to 15 mins post PPQ treatment; type: functional
[20] = target: T2, Kappa-type opioid receptor; experiment: Displacement of [3H]U69,593 from KOR (unknown origin) expressed in CHO cell membranes
[21] = target: T6, Delta-type opioid receptor (Homo sapiens, UniProt P41143); experiment: Displacement of [3H]naltrindole from DOR (unknown origin) expressed in CHO cell membranes
T6 sequence (P41143 whole entry): as the sequence (F7HEV7 whole entry) above, with A10E, F27C, N29S, K112E, I179V counted along it

Mu-type opioid receptor [22] = target: T3, Mu-type opioid receptor; experiment: Displacement of [3H]DAMGO from MOR (unknown origin) expressed in CHO cell membranes
[23] = target: T6, Delta-type opioid receptor; experiment: Binding affinity to DOR (unknown origin)
Mu-type opioid receptor [24] = target: T3, Mu-type opioid receptor; experiment: Binding affinity to MOR (unknown origin)
[25] = target: T4, G_PROTEIN_RECEP_F1_2 domain-containing protein; experiment: Displacement of [3H]Naltrindole from DOR in guinea pig brain membranes; type: cell membranes, Membrane
[26] = target: T5, Kappa-type opioid receptor; experiment: Displacement of [3H]U69,593 from KOR in guinea pig brain membranes; type: cell membranes, Membrane

T1 sequence (P97266 whole entry): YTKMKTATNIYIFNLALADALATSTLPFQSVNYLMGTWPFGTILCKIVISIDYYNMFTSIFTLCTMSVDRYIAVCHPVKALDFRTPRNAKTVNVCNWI

Q: For `CCC12CCN(CC3CC3)C(C(=O)c3ccc(NC=O)cc31)C2C` (racemic), which Ki (Mu-type opioid receptor [1]) is on record?
A: Its Ki is 6.1 nM.

Q: For `C=CC[N+]1(C)CC[C@]2(C)c3cc(O)ccc3C[C@@H]1[C@@H]2C` (some centres undefined), which EC50 [2] is on record?
A: The EC50 was 268 nM.

Q: And the Ki (Mu-type opioid receptor [3])?
A: The Ki was 56.4 nM.

Q: What about the Emax [4] of the same molecule?
A: The Emax was 27.3%.

Q: And the Ki [5]?
A: Its Ki is 10.3 nM.

Q: `C[C@H]1[C@H]2Cc3ccc(Nc4ccccc4)cc3[C@@]1(C)CCN2CC1CC1` was tested. Which Ki [6] did it give?
A: Its Ki is 5.2 nM.

Q: How did the Ki [6] turn out when `C[C@H]1[C@H]2Cc3ccc(N)cc3[C@@]1(C)CCN2CC1CC1` was run?
A: The Ki was 12 nM.

Q: Which results are given for `C[C@H]1[C@H]2Cc3ccc(O)cc3[C@@]1(C)CCN2CCC#N`?
A: ED50 (Mus musculus [7]): 0.05 mg/kg; ED50 (Mus musculus [8]): 0.1 mg/kg; ED50 (Mus musculus [9]): 0.3 mg/kg; Ki (Mu-type opioid receptor [10]): 9.8 nM; Ki [11]: 0.4 nM; Ki [12]: 4.2 nM

Q: How did the Ratio Ki (Homo sapiens [13]) turn out when `CCCCC(=N)NCCCCCNC(=O)[C@H](CC(C)C)NC(=O)CNC(=O)[C@@]1(c2ccccc2)C[C@H]1CN1CC[C@]2(C)c3cc(O)ccc3C[C@@H]1[C@@H]2C` was run?
A: Its Ratio Ki is 375.

Q: And the Ratio Ki (Homo sapiens [14])?
A: Its Ratio Ki is 408.

Q: And the ED50 (Mus musculus [15])?
A: The ED50 was 0.88 mg/kg.

Q: What about the Ki [16] of the same molecule?
A: The Ki was 6.7 nM.

Q: With `CC1C2Cc3ccc(C(N)=O)cc3C1(C)CCN2CC1CC1` (racemic) as the molecule, how does the Ki [6] read?
A: Its Ki is 8.3 nM.

Q: With `C[C@H]1[C@H]2Cc3ccc(O)cc3[C@@]1(C)CC[N+]2(C)CC1CC1` (some centres undefined) as the molecule, how does the EC50 [2] read?
A: The EC50 was 77.3 nM.

Q: What about the Ki (Mu-type opioid receptor [3]) of the same molecule?
A: The Ki was 23 nM.

Q: What about the Emax [4] of the same molecule?
A: The Emax was 50%.

Q: What about the Ki [5] of the same molecule?
A: Its Ki is 4.33 nM.

Q: `C[C@H]1[C@H]2Cc3ccc(O)cc3[C@@]1(C)CCN2C[C@@H]1C[C@@]1(C(=O)NCc1ccccc1)c1ccccc1` was tested. Which Ki [16] did it give?
A: Its Ki is 35 nM.

Q: With `CC1C2Cc3ccc(Nc4cccnc4)cc3C1(C)CCN2CC1CC1` (racemic) as the molecule, how does the Ki [17] read?
A: Its Ki is 0.5 nM.

Q: And the Ki (Mu-type opioid receptor [18])?
A: Its Ki is 0.64 nM.

Q: What about the Ki [6] of the same molecule?
A: The Ki was 21 nM.

Q: With `C[C@H]1[C@H]2Cc3ccc(O)cc3[C@@]1(C)CCN2CCCCCCO` as the molecule, how does the ED50 (Mus musculus [19]) read?
A: Its ED50 is 1.9 mg/kg.

Q: With `C[C@H]1[C@H]2Cc3cc4sc(N)nc4cc3[C@@]1(C)CCN2CC1CC1` as the molecule, how does the Ki [20] read?
A: Its Ki is 6.7 nM.

Q: What about the Ki [21] of the same molecule?
A: The Ki was 940 nM.

Q: And the Ki (Mu-type opioid receptor [22])?
A: Its Ki is 48 nM.

Q: How did the Ki [17] turn out when `COc1ccc(Nc2ccc3c(c2)C2(C)CCN(CC4CC4)C(C3)C2C)cc1` (racemic) was run?
A: Its Ki is 0.29 nM.

Q: And the Ki (Mu-type opioid receptor [18])?
A: Its Ki is 0.47 nM.

Q: What about the Ki [6] of the same molecule?
A: The Ki was 8.3 nM.

Q: With `C[C@H]1[C@H]2Cc3ccc(O)cc3[C@@]1(C)CCN2C[C@@H]1CCCO1` as the molecule, how does the Ki [6] read?
A: Its Ki is 2.5 nM.

Q: What does the source list for `C[C@H]1[C@H]2Cc3ccc(O)cc3[C@@]1(C)CCN2CC1CC1`?
A: Ki [17]: 0.052 nM; Ki [6]: 0.58 nM

Q: Which results are given for `CCC12CCN(CC3CC3)C(C(=O)c3ccc(O)cc31)C2C` (racemic)?
A: Ki [23]: 3.4 nM; Ki (Mu-type opioid receptor [24]): 0.78 nM; Ki [6]: 3.4 nM

Q: Which results are given for `C[C@H]1[C@H]2Cc3ccc(NC=O)cc3[C@]1(C)CCN2CC1CC1`?
A: Ki [25]: 9.8 nM; Ki (Mu-type opioid receptor [1]): 1.1 nM; Ki [26]: 0.49 nM

Q: How did the ED50 (Mus musculus [7]) turn out when `C#CCCN1CC[C@]2(C)c3cc(O)ccc3C[C@@H]1[C@@H]2C` was run?
A: Its ED50 is 0.1 mg/kg.

Q: And the ED50 (Mus musculus [8])?
A: Its ED50 is 0.04 mg/kg.

Q: And the ED50 (Mus musculus [9])?
A: Its ED50 is 0.05 mg/kg.

Q: What about the Ki (Mu-type opioid receptor [10]) of the same molecule?
A: Its Ki is 4.6 nM.

Q: What about the Ki [11] of the same molecule?
A: The Ki was 1.4 nM.

Q: What about the Ki [12] of the same molecule?
A: The Ki was 10 nM.

Q: Which Ratio Ki (Homo sapiens [13]) does the source give for `CCCCC(=N)NCCCCCCNC(=O)[C@H](CC(C)C)NC(=O)CNC(=O)[C@@]1(c2ccccc2)C[C@H]1CN1CC[C@]2(C)c3cc(O)ccc3C[C@@H]1[C@@H]2C` here?
A: The Ratio Ki was 408.

Q: What about the Ratio Ki (Homo sapiens [14]) of the same molecule?
A: Its Ratio Ki is 424.

Q: What about the ED50 (Mus musculus [15]) of the same molecule?
A: Its ED50 is 1.1 mg/kg.

Q: What about the Ki [16] of the same molecule?
A: Its Ki is 5.3 nM.

Q: Which Ki (Mu-type opioid receptor [24]) does the source give for `C[C@H]1[C@H]2Cc3ccc(O)cc3[C@@]1(C)CCN2C[C@@H]1C[C@@]1(CN1CCCCC1)c1ccccc1` here?
A: The Ki was 45 nM.

Q: And the Ki [16]?
A: The Ki was 179 nM.

Q: `C=CCCN1CC[C@]2(C)c3cc(O)ccc3C[C@@H]1[C@@H]2C` was tested. Which ED50 (Mus musculus [7]) did it give?
A: Its ED50 is 0.8 mg/kg.

Q: And the ED50 (Mus musculus [8])?
A: The ED50 was 0.3 mg/kg.

Q: What about the ED50 (Mus musculus [9]) of the same molecule?
A: The ED50 was 0.05 mg/kg.

Q: And the Ki (Mu-type opioid receptor [10])?
A: Its Ki is 2.1 nM.

Q: And the Ki [11]?
A: Its Ki is 1.3 nM.

Q: And the Ki [12]?
A: The Ki was 21 nM.

Q: Which results are given for `C[C@H]1[C@H]2Cc3cc4sc(N)nc4cc3[C@@]1(C)CCN2CC1CCC1`?
A: Ki [20]: 0.49 nM; Ki [21]: 93 nM; Ki (Mu-type opioid receptor [22]): 8.3 nM

Q: Which results are given for `C=CCN1CC[C@]2(C)c3cc(O)ccc3C[C@@H]1[C@@H]2C`?
A: ED50 (Mus musculus [7]): 0.1 mg/kg; Ki (Mu-type opioid receptor [10]): 0.9 nM; Ki [11]: 0.3 nM; Ki [12]: 5.5 nM

Q: How did the Ki (Mu-type opioid receptor [1]) turn out when `CC1C2Cc3ccc(NC=O)cc3C1(C)CCN2CC1CC1` (racemic) was run?
A: Its Ki is 1.9 nM.

Q: With `C[C@H]1[C@H]2C(=O)c3ccc(O)cc3[C@@]1(C)CCN2CC1CCCO1` (some centres undefined) as the molecule, how does the Ki [23] read?
A: The Ki was > 10000 nM.

Q: And the Ki (Mu-type opioid receptor [24])?
A: The Ki was 2900 nM.

Q: And the Ki [16]?
A: The Ki was 720 nM.

Q: Which results are given for `CC1C2Cc3ccc(O)cc3C1(C)CCN2CC1CC1` (racemic)?
A: Ki [17]: 0.18 nM; Ki [6]: 1.1 nM

Q: For `C[C@H]1[C@H]2Cc3ccc(O)cc3[C@@]1(C)CCN2CCCC#N`, which ED50 (Mus musculus [7]) is on record?
A: Its ED50 is 0.01 mg/kg.

Q: And the ED50 (Mus musculus [8])?
A: Its ED50 is 1 mg/kg.

Q: And the ED50 (Mus musculus [9])?
A: Its ED50 is 0.4 mg/kg.

Q: And the Ki (Mu-type opioid receptor [10])?
A: The Ki was 23 nM.

Q: And the Ki [11]?
A: Its Ki is 0.4 nM.

Q: What about the Ki [12] of the same molecule?
A: The Ki was 5.8 nM.
